In ChEMBL document CHEMBL4673309, “Synthesis and anticancer activity of new coumarin-3-carboxylic acid derivatives as potential lactatetransportinhibitors” (Bioorg Med Chem, 2021):
Calls of active or inactive are those of the source. The calls are words filed in the database; no cut-off is given here.

Columns and labels:
NCM460 = assay: Cytotoxicity against human NCM460 cells harboring low MCT1 expression incubated for 72 hrs by MTT assay; type: cell-based; settings: ncm460, 72 h
HCT-116 [1] = assay: Cytotoxicity against human HCT-116 cells overexpressing MCT-1 assessed as reduction in cell viability measured after 72 hrs by MTT assay; type: functional, cell-based; settings: HCT-116, 72 h
HeLa [2] = assay: Cytotoxicity against human HeLa cells overexpressing MCT-1 assessed as reduction in cell viability measured after 72 hrs by MTT assay; type: functional, cell-based
HeLa [3] = assay: Antiproliferative activity against human HeLa cells assessed as reduction in cell proliferation at IC50 incubated for 6 days and measured on day 6 by MTS assay; type: functional, cell-based; settings: time 6.0 day
HCT-116 [4] = assay: Antiproliferative activity against human HCT-116 cells assessed as reduction in cell proliferation at IC50 incubated for 6 days and measured on day 6 by MTS assay; type: functional, cell-based; settings: time 6.0 day
HeLa [5] = assay: Induction of apoptosis in human HeLa cells assessed as early apoptosis measured after 48 hrs by annexinV-FITC/propidium iodide staining based by flow cytometry (reference value: 2.94 %); type: functional
HeLa [6] = assay: Induction of apoptosis in human HeLa cells assessed as late apoptotic cells measured after 48 hrs by annexinV-FITC/propidium iodide staining based by flow cytometry (reference value: 3.85 %); type: functional
HCT-116 [7] = assay: Induction of apoptosis in human HCT-116 cells assessed as early apoptosis measured after 48 hrs by annexinV-FITC/propidium iodide staining based by flow cytometry (reference value: 3.42 %); type: functional
HCT-116 [8] = assay: Induction of apoptosis in human HCT-116 cells assessed as late apoptotic cells measured after 48 hrs by annexinV-FITC/propidium iodide staining based by flow cytometry (reference value: 2.78 %); type: functional
HeLa [9] = assay: Downregulation of MCT1 expression in human HeLa cells at 0.01 to 100 uM measured after 48 hrs by Western blot analysis; type: functional, cell-based; settings: dose 0.01-100 µM
HCT-116 [10] = assay: Downregulation of MCT1 expression in human HCT-116 cells at 0.01 to 100 uM measured after 48 hrs by Western blot analysis; type: functional, cell-based; settings: dose 0.01-100 µM
HeLa [11] = assay: Decrease in glucose consumption in human HeLa cells at IC50 after 12 hrs by glucose oxidase based colorimetric assay; type: functional, cell-based
HeLa [12] = assay: Reduction of lactate production in human HeLa cells at IC50 after 8 hrs by colorimetric assay; type: functional, cell-based
HCT-116 [13] = assay: Decrease in glucose consumption in human HCT-116 cells at IC50 after 4 to 24 hrs by glucose oxidase based colorimetric assay; type: functional, cell-based; settings: time 4-24 hrs
HCT-116 [14] = assay: Reduction of lactate production in human HCT-116 cells at IC50 after 4 to 24 hrs by colorimetric assay; type: functional, cell-based; settings: time 4-24 hrs
HeLa [15] = assay: Decrease in intracellular glucose level in human HeLa cells at IC50 after 24 hrs by colorimetric assay; type: functional, cell-based
HCT-116 [16] = assay: Decrease in intracellular glucose level in human HCT-116 cells at IC50 after 24 hrs by colorimetric assay; type: functional, cell-based
HCT-116 [17] = assay: Decrease in intracellular glucose level in human HCT-116 cells at IC50 after 4 hrs by colorimetric assay; type: functional, cell-based
HeLa [18] = assay: Inhibition of lactate transport in human HeLa cells assessed as increase in intracellular lactate level at IC50 measured after 8 to 24 hrs by colorimetric assay; type: functional, cell-based; settings: time 8-24 hrs
HCT-116 [19] = assay: Inhibition of lactate transport in human HCT-116 cells assessed as increase in intracellular lactate level at IC50 measured after 8 hrs by colorimetric assay; type: functional, cell-based
HCT-116 [20] = assay: Inhibition of lactate uptake in human HCT-116 cells at 0.01 to 100 uM after 24 hrs by colorimetric assay; type: functional, cell-based; settings: dose 0.01-100 µM
HeLa [21] = assay: Inhibition of lactate uptake in human HeLa cells at low concentration after 24 hrs by colorimetric assay; type: functional, cell-based
HeLa [22] = assay: Inhibition of lactate uptake in human HeLa cells at high concentration after 24 hrs by colorimetric assay; type: functional, cell-based
HeLa [23] = assay: Decrease in intracellular glucose level in human HeLa cells at IC50 after 4 hrs by colorimetric assay; type: functional, cell-based

## CCN(CC)c1ccc2cc(C(=O)NN)c(=O)oc2c1
NCM460
  Activity: Non-Toxic
HCT-116 [1]
  IC50: 3.36 µM
HeLa [2]
  IC50: 5.48 µM
HeLa [3]
  Activity: Active
HCT-116 [4]
  Activity: Active
HeLa [5]
  Activity: 5.28%
HeLa [6]
  Activity: 6.47%
HCT-116 [7]
  Activity: 2.52%
HCT-116 [8]
  Activity: 5.94%
HeLa [9]
  inhibition: Active
HCT-116 [10]
  inhibition: Active
HeLa [11]
  inhibition: Active
HeLa [12]
  inhibition: Active
HCT-116 [13]
  inhibition: Active
HCT-116 [14]
  inhibition: Active
HeLa [15]
  inhibition: Active
HCT-116 [16]
  inhibition: inactive
HCT-116 [17]
  inhibition: Active
HeLa [18]
  inhibition: Active
HCT-116 [19]
  inhibition: Active
HCT-116 [20]
  inhibition: Active
HeLa [21]
  inhibition: Active
HeLa [22]
  inhibition: inactive

## CCN(CC)c1ccc2cc(C(=O)NC3CC3)c(=O)oc2c1
NCM460
  Activity: Non-Toxic
HCT-116 [1]
  IC50: > 100 µM
HeLa [2]
  IC50: > 100 µM

## O=C(NCCNC(=O)c1cc2ccc(OCc3ccccc3)cc2oc1=O)c1cc2ccc(OCc3ccccc3)cc2oc1=O
NCM460
  Activity: Non-Toxic
HCT-116 [1]
  IC50: 15.9 µM
HeLa [2]
  IC50: 12.1 µM

## O=C(Nc1ccccc1)c1cc2ccc(OCc3ccccc3)cc2oc1=O
NCM460
  Activity: Non-Toxic
HCT-116 [1]
  IC50: > 100 µM
HeLa [2]
  IC50: > 100 µM

## O=C(NCCNC(=O)c1cc2ccc(OCc3ccc([N+](=O)[O-])cc3)cc2oc1=O)c1cc2ccc(OCc3ccc([N+](=O)[O-])cc3)cc2oc1=O
NCM460
  Activity: Non-Toxic
HCT-116 [1]
  IC50: 68.1 µM
HeLa [2]
  IC50: 13.9 µM

## CCCOc1ccc2cc(C(=O)NN)c(=O)oc2c1
NCM460
  Activity: Non-Toxic
HCT-116 [1]
  IC50: 69.8 µM
HeLa [2]
  IC50: > 100 µM

## CCOc1ccc2cc(C(=O)NCCO)c(=O)oc2c1
NCM460
  Activity: Non-Toxic
HCT-116 [1]
  IC50: > 100 µM
HeLa [2]
  IC50: > 100 µM

## CCN(CC)c1ccc2cc(C(=O)N/N=C(/C)c3cccnc3)c(=O)oc2c1
NCM460
  Activity: Non-Toxic
HCT-116 [1]
  IC50: > 100 µM
HeLa [2]
  IC50: 70 µM

## N#C/C(=C\c1ccc(O)cc1)C(=O)O [alpha-CYANO-4-HYDROXYCINNAMIC ACID]
NCM460
  Activity: Non-Toxic
HCT-116 [1]
  IC50: 1650 µM
HeLa [2]
  IC50: 2140 µM
HeLa [3]
  Activity: Active
HeLa [5]
  Activity: 8.8%
HeLa [6]
  Activity: 13.6%
HCT-116 [7]
  Activity: 2.07%
HCT-116 [8]
  Activity: 9.36%
HeLa [12]
  inhibition: Active
HCT-116 [13]
  inhibition: Active
HCT-116 [14]
  inhibition: Active
HeLa [23]
  inhibition: Active
HeLa [18]
  inhibition: Active

## O=C(NCCNC(=O)c1cc2ccc(OCc3cccc(Br)c3)cc2oc1=O)c1cc2ccc(OCc3cccc(Br)c3)cc2oc1=O
NCM460
  Activity: Non-Toxic
HCT-116 [1]
  IC50: 11.6 µM
HeLa [2]
  IC50: 5.52 µM

## CCN(CC)c1ccc2cc(C(=O)NO)c(=O)oc2c1
NCM460
  Activity: Non-Toxic
HCT-116 [1]
  IC50: 37.6 µM
HeLa [2]
  IC50: 35.9 µM

## NNC(=O)c1cc2ccc(OCc3cccc(Br)c3)cc2oc1=O
NCM460
  Activity: Non-Toxic
HCT-116 [1]
  IC50: > 100 µM
HeLa [2]
  IC50: > 100 µM

## CCN(CC)c1ccc2cc(C(=O)NCCO)c(=O)oc2c1
NCM460
  Activity: Non-Toxic
HCT-116 [1]
  IC50: > 100 µM
HeLa [2]
  IC50: > 100 µM

## NNC(=O)c1cc2ccc(OCc3ccc([N+](=O)[O-])cc3)cc2oc1=O
NCM460
  Activity: Non-Toxic
HCT-116 [1]
  IC50: > 100 µM
HeLa [2]
  IC50: > 100 µM

## CCCOc1ccc2cc(C(=O)NCCO)c(=O)oc2c1
NCM460
  Activity: Non-Toxic
HCT-116 [1]
  IC50: > 100 µM
HeLa [2]
  IC50: 22.6 µM

## CCOc1ccc2cc(C(=O)NN)c(=O)oc2c1
NCM460
  Activity: Non-Toxic
HCT-116 [1]
  IC50: > 100 µM
HeLa [2]
  IC50: 38.3 µM

## O=c1c(O)c(-c2ccc(O)c(O)c2)oc2cc(O)cc(O)c12 [QUERCETIN]
NCM460
  Activity: Non-Toxic
HCT-116 [1]
  IC50: 43.9 µM
HeLa [2]
  IC50: 22.5 µM
HCT-116 [4]
  Activity: Active
HeLa [5]
  Activity: 4.92%
HeLa [6]
  Activity: 14.2%
HCT-116 [7]
  Activity: 5.35%
HCT-116 [8]
  Activity: 10.3%
HeLa [12]
  inhibition: Active
HCT-116 [13]
  inhibition: Active
HCT-116 [14]
  inhibition: Active
HeLa [23]
  inhibition: Active
HeLa [18]
  inhibition: Active

## O=C(NO)c1cc2ccc(OCc3ccccc3)cc2oc1=O
NCM460
  Activity: Non-Toxic
HCT-116 [1]
  IC50: 39.5 µM
HeLa [2]
  IC50: 31.8 µM

## O=C(NCCO)c1cc2ccc(OCc3ccccc3)cc2oc1=O
NCM460
  Activity: Non-Toxic
HCT-116 [1]
  IC50: 18.7 µM
HeLa [2]
  IC50: 14.2 µM

## O=C(NCCO)c1cc2ccc(OCc3cccc(Br)c3)cc2oc1=O
NCM460
  Activity: Non-Toxic
HCT-116 [1]
  IC50: 30.8 µM
HeLa [2]
  IC50: 17.6 µM

## CCN(CC)c1ccc2cc(C(=O)N/N=C(/C)c3cccs3)c(=O)oc2c1
NCM460
  Activity: Non-Toxic
HCT-116 [1]
  IC50: > 100 µM
HeLa [2]
  IC50: > 100 µM

## O=C(NCCO)c1cc2ccc(OCc3ccc([N+](=O)[O-])cc3)cc2oc1=O
NCM460
  Activity: Non-Toxic
HCT-116 [1]
  IC50: 33.4 µM
HeLa [2]
  IC50: 6.89 µM

## CCN(CC)c1ccc2cc(C(=O)NC(C)C)c(=O)oc2c1
NCM460
  Activity: Non-Toxic
HCT-116 [1]
  IC50: > 100 µM
HeLa [2]
  IC50: 73 µM

## NNC(=O)c1cc2ccc(OCc3ccccc3)cc2oc1=O
NCM460
  Activity: Non-Toxic
HCT-116 [1]
  IC50: > 100 µM
HeLa [2]
  IC50: > 100 µM
